# Results as given in patent publication US5272151A, “Aminoacyl and oligopeptidyl derivatives of allopurinol exhibiting immunostimulatory activity, and pharmaceutical formulations containing these substances” (Sigma-Tau Industrie Farmaceutiche Riunite S.p.A., priority 1991, dated 1993).
# Experiments:
# E. coli = experiment: Protective effect in experimentally-infected immunosuppressed mice (E. coli); format: in vivo; conditions: cyclophosphamide-immunodepressed CD1 mice; 25 mg/kg/d i.p. day -5 through day -1; challenge day 0
# From the text: (§1) Evaluation of the protective effects of ST 689 and ST 789 in experimentally-infected immunosuppressed mice.
# (§2) Male CDl mice (Charles River, Italy), 6-10 weeks old, were used in experimental groups of 9-20 animals. Systemic infection in the mice was achieved by intrapcritoncal inoculation of a pathogenic species of Klebsiclla (K. oxytoca), Proteus (P. mirabilis), Serratia (S. marcescens),and Hscherichia (E. coli). Eighteen-hour broth cultures were used to prepare infectious inocula that were either sublethal (Proteus) or which corresponded to an LD30 (Serratia) and an LD10 (Escherichia, Klebsiella). The bacterial challenge, inoculated i.p. in 0.5 mL of 5% gastric mucin, was designed to cause the death of animals immunodepressed with cyclophosphamide (administered i.p. in 0.2 mL of sterile physiological solution at a dosage of 100 mg/kg) 5 days prior to infection. The compounds were administered i.p. at daily doses of 25 mg/kg from day -5 to day -1 with respect to the day of bacterial inoculation (day 0). The results are expressed as % mortality and were statistically analysed using Fisher's test (Biostatistics in Pharmacology, vol. 2, Pergamon Press).
# [1] = Body and spleen weight of rats in the chemotaxis test (Test 3); format: in vivo, rat; conditions: Fisher 344 rats; 25 mg/kg/d i.p. day -5 through day -1
# Description: Inbred male Fisher 344 rats (Charles River, Italy), ca. 6 months old, were used in experimental groups of 5 animals. Test animals received the compounds at dosage of 25 mg/kg daily from day -5 through day -1 relative to the day of blood sampling (day 0). The experimental procedure employed is described in Cates, L. K. et al., Modified Boyden chamber method of measuring polymorphonuclear leukocyte chemotaxis, in Leukocyte chemotaxis, Raven Press, New York, N.Y., 1978, p. 67.
# [2] = tested on: mouse peritoneal exudate cells (PECs); experiment: In vitro-ex vivo phagocytic activity of mouse peritoneal exudate cells (PECs); conditions: for % Phagocytic cells: % of cells that had phagocytosed relative to potential phagocytes in PECs; for % Phagocytic cells / SRBC phagocytosed / SRBC per phagocyte: 25 mg/kg daily i.p. day -5 through day -1; for SRBC phagocytosed: average number of SRBC phagocytosed by 100 potential phagocytes; for SRBC per phagocyte: average number of SRBC phagocytosed per phagocyte
# Description: In vitro-ex vivo effects of ST 689 and ST 789 on phagocytic activity of mouse peritoneal exudate cells (PECs).
# Male B6 D2 F1 mice (Charles River, Italy), 6 weeks old, in experimental groups of 5 animals, were treated with the above substances i.p. at daily doses of 25 mg/kg from day -5 through day -1 relative to the day the PECs were sampled (day 0). The experimental procedure followed those described in [1] and [2]; briefly, the animals in each group were asphyxiated with CO2, the peritoneal cavities repeatedly washed, and the PECs recovered from each experimental group pooled and standardised to 4×10^6 cells/mL. Aliquots (250 μL) of phagocyte suspension were added to equal volumes of 0.4% SRBC that had been appropriately opsonised with hyperimmune serum. The samples, prepared in duplicate, were incubated for 1 h and then osmotically shocked to eliminate non-phagocytosed erythrocytes. After adjusting the osmolarity to normal values, the phagocytes were centrifuged and differentially stained. Microscopic counts of cells with phagocytic capabilities and of phagocytosed SRBC in fields of 200 cells were performed in triplicate. The results are expressed as % phagocytic cells, the average number of SRBC phagocytosed per phagocyte, and the total number of SRBC phagocytosed per 100 phagocytes.
# K. oxytoca = experiment: Protective effect in experimentally-infected immunosuppressed mice (K. oxytoca); format: in vivo; conditions: for % Mortality, K. oxytoca: cyclophosphamide-immunodepressed CD1 mice, 25 mg/kg/d i.p. day -5 through day -1, challenge day 0
# From the text: as §1, §2
# Sarcoma 180 = experiment: Protective effect in mice carrying Sarcoma 180; format: in vivo; conditions: for % survival: CD1 mice carrying Sarcoma 180; for % survival / Died/Total / MST (Mean Survival Time; median): 25 mg/kg/d i.p. day +1 through +10; for Died/Total / MST (Mean Survival Time; median): CD1 mice, 1×10^4 Sarcoma 180 cells i.p.; for MST (Mean Survival Time; median): 25 mg/kg/day; for Body weight (x ± S.E.) of Sarcoma 180-carrying animals: 25 mg/kg/d i.p., in g
# Description: Evaluation of the protective effect of ST 689 and ST 789 in tumour-carryingmice,
# Outbred male CDI mice (Charles River, Italy), 7 weeks old, were used. Experimental groups containing 10 animals were inoculated i.p. with 1×10^4 Sarcoma 180 cells (ATCC, Rockville, Md., U.S.A.) in 0.1 mL of TC 199 medium. The compounds were administered intraperitoneally in 0.2 mL of sterile physiological solution at daily doses of 25 mg/kg from day +1 through day +10 relative to the day of tumour transplant (day 0). In addition, body weights of the animals were followed from day 0 through day 20. The weights of the animals can be indicative of the development of neoplastic processes. The activity of the compounds was evaluated in terms of % survival expressed as the Mean Survival Time (MST). The data reported in Table 4 indicate a substancial protective effect of ST 689 compared to ST 789 vis-a-vis % survival (20% vs. 10%) in terms of MST (21 vs. 17).
# [3] = Weight survey of rats in the IL-2 test (Test 5); format: in vivo, rat; conditions: Fisher rats; 25 mg/kg daily i.p. day -5 through day -1
# Description: Male Fisher rats (Charles River, Italy), 3 months old, in experimental groups of 5 animals, were treated with the substances at daily dosages of 25 mg/kg from day -5 through day -1 relative to the day the spleens were sampled (day 0). The experimental procedure employed was that reported in [1]. To suspensions of splenocytes, prepared in RPMI 1640 with 10% FCS+1×10^-5 M β-mercaptoethanol and standardised to a concentration of 1×10^7 cells/mL, were added equal volumes of ConA at a concentration of 18 μg/mL/well. After incubating for 48 h at 37° C. in the presence of 5% CO2 the samples were centrifuged and the supernates collected. Serial dilutions of the supernates were added to CTLL-2 cells (a line of T-cells requiring IL-2 for growth) standardised at 5×10^4 cells/mL. Following an overnight incubation, the samples were labelled with ^3 H--TdR (0.5 μCi/well)for 6 h, then the cells were collected on filters using a cell harvester, and counted (cpm) using a β-counter. The results are expressed in units of IL-2, comparing the counts in the samples to a standard curve prepared with purified IL-2 . . . ls1.
# P. mirabilis = experiment: Protective effect in experimentally-infected immunosuppressed mice (P. mirabilis); format: in vivo; conditions: for % Mortality, P. mirabilis: cyclophosphamide-immunodepressed CD1 mice, 25 mg/kg/d i.p. day -5 through day -1, challenge day 0
# From the text: as §1, §2
# [4] = immunodepressed mice, 25 mg/kg/d i.p.
# [5] = day +13, number in parentheses = animals still alive
# [6] = day +15, number in parentheses = animals still alive
# [7] = day +17, number in parentheses = animals still alive
# [8] = day +20, number in parentheses = animals still alive
Structure (SMILES),"% Mortality, E. coli (E. coli) [%]",Body wt [1] [g],Spleen wt [1] [mg],% Phagocytic cells [2] [%],SRBC phagocytosed [2],SRBC per phagocyte [2],"% Mortality, K. oxytoca (K. oxytoca) [%]",% survival (Sarcoma 180) [%],Died/Total (Sarcoma 180),MST (Mean Survival Time; median) (Sarcoma 180),Body weight (x ± S.E.) of Sarcoma 180-carrying animals (Sarcoma 180; day 0),Body weight (x ± S.E.) of Sarcoma 180-carrying animals (Sarcoma 180; day +1),Body weight (x ± S.E.) of Sarcoma 180-carrying animals (Sarcoma 180; day +3),Body weight (x ± S.E.) of Sarcoma 180-carrying animals (Sarcoma 180; day +6),Body weight (x ± S.E.) of Sarcoma 180-carrying animals (Sarcoma 180; day +8),Body weight (x ± S.E.) of Sarcoma 180-carrying animals (Sarcoma 180; day +10),Body weight (x ± S.E.) of Sarcoma 180-carrying animals (Sarcoma 180; [5]),Body weight (x ± S.E.) of Sarcoma 180-carrying animals (Sarcoma 180; [6]),Body weight (x ± S.E.) of Sarcoma 180-carrying animals (Sarcoma 180; [7]),Body weight (x ± S.E.) of Sarcoma 180-carrying animals (Sarcoma 180; [8]),other results
"O=c1[nH]cnc2c1cnn2CCCCCO [ST 689, 1,5-dihydro-1-(5-hydroxypentyl)-4H-pyrazolo-[3,4-d]-pyrimidin-4-one]",40,358.0 ± 9.49,591.4 ± 17.13,42.5 ± 0.5,229.5 ± 34.5,5.40 ± 0.90,10,20,8/10,21,23.0 ± 0.38,23.7 ± 0.34,24.5 ± 0.50,27.1 ± 0.62,28.3 ± 0.97,28.4 ± 0.81,28.6 ± 0.89,30.5 ± 1.28,32.5 ± 1.70,32.6 ± 1.85,"Effect on the phagocytic capabilities of PECs, in words ([2]; 25 mg/kg daily i.p.): extremely positive effect; Protective activity in Klebsiella infection, in words (K. oxytoca; [4]): equal to that of ST 789; Neoplastic proliferation judged from body weights, in words (Sarcoma 180; compared to animals treated with ST 789): diminution of neoplastic proliferation; Body weight [3]: 271.6 ± 4.76 g; Spleen weight [3]: 511.0 ± 22.35 mg; % Mortality, P. mirabilis (P. mirabilis): 10%; Protective activity in Proteus infection, in words (P. mirabilis; [4]): equal to that of ST 789"
"N=C(N)NCCC[C@H](NC(=O)OCCCCCn1cnc2c(=O)[nH]cnc21)C(=O)O [ST 789, N-alfa-5-(hypoxanthin-9-yl)-pentyloxycarbonylarginine, reference compound]",20,345.6 ± 8.84,610.0 ± 22.00,31.5 ± 0.5,152.5 ± 9.5,4.85 ± 0.25,10,10,9/10,17,22.8 ± 0.30,23.6 ± 0.34,24.8 ± 0.30,27.6 ± 0.46,29.5 ± 0.64,31.5 ± 0.92,32.2 ± 0.96,33.4 ± 1.05,33.7 ± 1.46,34.8 ± 3.90,"Body weight [3]: 275.0 ± 3.76 g; Spleen weight [3]: 539.2 ± 12.11 mg; % Mortality, P. mirabilis (P. mirabilis): 11,1%"
